Source: patent US20250206773A1, “FORMS AND COMPOSITIONS OF SODIUM CHENODEOXYCHOLATE” (Syntis Bio, Inc., priority 2022, published 2025)
Read-outs that look alike come from different tables or passages of the source.

Assay type: physicochemical
Method: HPLC analysis was carried out on an Agilent 1260 Infinity chromatograph, using a Hichrom C18 column 100×4.6 mm, 3.5 m, at 40° C. Method details were as follows:
Around 10 mg of NaCDC Form B was weighed into clear HPLC vials and the selected solvents (500 μL) were added to the vials. Experiments ST07, 09, 11, 13, 15, 17, 19 and 21 were kept stirring for 24 h at 30° C. and 60° C., while samples were taken after 4 h and 24 h for HPLC analysis. Subsequently, the same experiments were evaporated at 30° C. for 24 h under reduced pressure (21-22 mbar), and the solids were evaluated by HPLC and XRPD. Separately, the solutions and slurries from experiments ST10, 12, 14, 16, 18, 20 and 22 were stirred for 24 h at 30° C. and 60° C. (no samples were taken) and evaporated at 60° C. for 24 h under reduced pressure (20-21 mbar). The recovered materials were sampled for HPLC and XRPD analyses.

[1] = ST13: Methanol, solution, 60° C.
[2] = ST17: n-Heptane, slurry, 60° C.

## C[C@H](CCC(=O)[O-])[C@H]1CC[C@H]2[C@@H]3[C@H](O)C[C@@H]4C[C@H](O)CC[C@]4(C)[C@H]3CC[C@]12C.[Na+] [Form B, sodium chenodeoxycholate]
  HPLC purities throughout the stability tests: ≥ 86.1%
  form stability in slurry experiments (XRPD): stable
  stability in solution and/or slurry: remained stable
ST07: Water solution RT 24 h, evaporated at 30° C. 24 h
  HPLC (%) at 212 nm (after evap.): 97.8%
ST07: Water solution RT, evaporated at 30° C.
  XRPD (after evap.): Am.
ST07: Water, solution, RT
  HPLC (%) at 212 nm (before evap.) 4 h: 100.0%
  HPLC (%) at 212 nm (before evap.) 24 h: 96.2%
ST08: Water solution RT 24 h, evaporated at 60° C. 24 h, listed as NaCDC Form B
  HPLC (%) at 212 nm (after evap.): 84.6%
ST08: Water solution RT 24 h, evaporated at 60° C. 24 h, listed as starting material
  HPLC (%) at 212 nm (after evap.): around 84.5%
ST08: Water solution RT, evaporated at 60° C.
  XRPD (after evap.): Am.
ST09: Water solution 60° C. 24 h, evaporated at 30° C. 24 h
  HPLC (%) at 212 nm (after evap.): 95.7%
ST09: Water solution 60° C., evaporated at 30° C.
  XRPD (after evap.): Am.
ST09: Water, solution, 60° C.
  HPLC (%) at 212 nm (before evap.) 4 h: 100.0%
  HPLC (%) at 212 nm (before evap.) 24 h: 96.6%
ST10: Water solution 60° C. 24 h, evaporated at 60° C. 24 h
  HPLC (%) at 212 nm (after evap.): 90.0%
ST10: Water solution 60° C., evaporated at 60° C.
  XRPD (after evap.): Am.
ST11: Methanol solution RT 24 h, evaporated at 30° C. 24 h
  HPLC (%) at 212 nm (after evap.): 87.1%
ST11: Methanol solution RT, evaporated at 30° C.
  XRPD (after evap.): Am.
ST11: Methanol, solution, RT
  HPLC (%) at 212 nm (before evap.) 4 h: 91.4%
  HPLC (%) at 212 nm (before evap.) 24 h: 93.5%
ST12: Methanol solution RT 24 h, evaporated at 60° C. 24 h
  HPLC (%) at 212 nm (after evap.): 90.5%
ST12: Methanol solution RT, evaporated at 60° C.
  XRPD (after evap.): Am.
ST13: Methanol solution 60° C. 24 h, evaporated at 30° C. 24 h
  HPLC (%) at 212 nm (after evap.): no peak~
ST13: Methanol solution 60° C., evaporated at 30° C.
  XRPD (after evap.): Am.
[1]
  HPLC (%) at 212 nm (before evap.) 4 h: 94.8%
  HPLC (%) at 212 nm (before evap.) 24 h: 90.3%
ST14: Methanol solution 60° C. 24 h, evaporated at 60° C. 24 h
  HPLC (%) at 212 nm (after evap.): 92.5%
ST14: Methanol solution 60° C., evaporated at 60° C.
  XRPD (after evap.): Am.
ST15: n-Heptane slurry RT 24 h, evaporated at 30° C. 24 h
  HPLC (%) at 212 nm (after evap.): no peak~
ST15: n-Heptane, slurry, RT
  HPLC (%) at 212 nm (before evap.) 4 h: 89.9%
  HPLC (%) at 212 nm (before evap.) 24 h: 100.0%
ST16: n-Heptane slurry RT 24 h, evaporated at 60° C. 24 h, listed as NaCDC Form B
  HPLC (%) at 212 nm (after evap.): 84.5%
ST16: n-Heptane slurry RT 24 h, evaporated at 60° C. 24 h, listed as starting material
  HPLC (%) at 212 nm (after evap.): around 84.5%
ST17: n-Heptane slurry 60° C. 24 h, evaporated at 30° C. 24 h
  HPLC (%) at 212 nm (after evap.): 93.6%
[2]
  HPLC (%) at 212 nm (before evap.) 4 h: 91.5%
  HPLC (%) at 212 nm (before evap.) 24 h: 91.4%
ST18: n-Heptane slurry 60° C. 24 h, evaporated at 60° C. 24 h
  HPLC (%) at 212 nm (after evap.): 90.4%
ST19: MEK slurry RT 24 h, evaporated at 30° C. 24 h
  HPLC (%) at 212 nm (after evap.): 74.1%
ST19: MEK, slurry, RT
  HPLC (%) at 212 nm (before evap.) 4 h: 100.0%
  HPLC (%) at 212 nm (before evap.) 24 h: 97.7%
ST20: MEK slurry RT 24 h, evaporated at 60° C. 24 h
  HPLC (%) at 212 nm (after evap.): 86.1%
ST21: MEK slurry 60° C. 24 h, evaporated at 30° C. 24 h
  HPLC (%) at 212 nm (after evap.): 55.9%
ST21: MEK, slurry, 60° C.
  HPLC (%) at 212 nm (before evap.) 4 h: 65.2%
  HPLC (%) at 212 nm (before evap.) 24 h: 94.5%
ST22: MEK slurry 60° C. 24 h, evaporated at 60° C. 24 h
  HPLC (%) at 212 nm (after evap.): 86.6%
